Read-outs that look alike come from different tables or passages of the source.
Molecular target: T1, human GLP-1R (Homo sapiens, UniProt P43220)
T1 construct: host or cells: HEK293
Assay: GLP-1R cAMP assay (Example B1a, HTRF, 30 min at room temperature)
Assay type: cell-based
How it was run: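 Competitive HTRF read-out of cAMP after 30 min room-temperature stimulation, BETP absent, of human GLP-1R-HEK293 cells (1,000/well) in HEPES buffer with 500 μM IBMX and 0.1% BSA. Activation normalised to GLP-1(7-37) positive control. EC50 from 4-parameter non-linear regression.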

[1] = cAMP accumulation in HEK293 expressing human GLP-1R, no BETP, 30 min room temperature (Method B1a, compounds ID 1-609), Table 1, read-out: EC50

T1 sequence (P43220 24-463): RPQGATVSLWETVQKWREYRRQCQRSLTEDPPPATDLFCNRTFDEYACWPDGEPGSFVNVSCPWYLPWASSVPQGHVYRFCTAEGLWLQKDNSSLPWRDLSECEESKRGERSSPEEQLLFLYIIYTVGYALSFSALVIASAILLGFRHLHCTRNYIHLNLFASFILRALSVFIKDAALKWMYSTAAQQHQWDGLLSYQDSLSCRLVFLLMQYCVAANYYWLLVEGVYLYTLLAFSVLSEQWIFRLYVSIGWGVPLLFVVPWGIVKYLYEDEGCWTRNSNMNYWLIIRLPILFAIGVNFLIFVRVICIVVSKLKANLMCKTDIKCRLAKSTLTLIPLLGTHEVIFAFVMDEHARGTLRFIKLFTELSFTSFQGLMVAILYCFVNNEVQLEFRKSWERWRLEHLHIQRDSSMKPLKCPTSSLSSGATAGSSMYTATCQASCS

EC50 [1] [nM]	Compound	further results
110	Cc1cc(-n2nc3c(c2-n2ccn(-c4ccc5c(cnn5C)c4F)c2=O)[C@@H]2CC[C@H](C3)N2Cc2cc3cc([C@H]4CCOC(C)(C)C4)ccc3n2[C@@]2(c3noc(=O)[nH]3)C[C@@H]2C)cc(C)c1F [Compound 417, 3-((1S,2S)-1-(5-((S)-2,2-dimethyltetrahydro-2H-pyran-4-yl)-2-(((4S,7R)-3-(3-(4-fluoro-1-methyl-1H-indazol-5-yl)-2-oxo-2,3-dihydro-1H-imidazol-1-yl)-2-(4-fluoro-3,5-dimethylphenyl)-2,4,5,6,7,8-hexahydro-4,7-epiminocyclohepta [c]pyrazol-9-yl)methyl)-1H-indol-1-yl)-2-methylcyclopropyl)-1,2,4-oxadiazol-5(4H)-one]	–
2120	Cc1cc(-n2nc3c(c2-n2ccn(-c4ccc5c(cnn5C)c4F)c2=O)[C@@H]2CC[C@H](C3)N2C(=O)c2cc3cc([C@H]4COC(C)(C)C4)ccc3n2[C@@]2(c3noc(=O)[nH]3)C[C@@H]2C)cc(C)c1F [Compound 423, 3-[(1S,2S)-1-[5-[(3S)-5,5-dimethyltetrahydrofuran-3-yl]-2-[(1S,8R)-4-(4-fluoro-3,5-dimethyl-phenyl)-3-[3-(4-fluoro-1-methyl-indazol-5-yl)-2-oxo-imidazol-1-yl]-4,5,11-triazatricyclo[6.2.1.02,6]undeca-2,5-diene-11-carbonyl]indol-1-yl]-2-methyl-cyclopropyl]-4H-1,2,4-oxadiazol-5-one]	–
123	Cc1cc(-n2nc3c(c2-n2ccn(-c4ccc5c(cnn5C)c4F)c2=O)[C@@H]2CC[C@H](C3)N2C(=O)c2cc3ccc(C4CCOCC4)cc3nc2C2(c3noc(=O)[nH]3)CC2C)cc(C)c1F (single isomer, unassigned) [Compound 237]	–
> 10000	Cc1cc(-n2nc3c(c2-n2ccn(-c4ccc5c(cnn5C)c4F)c2=O)[C@@H]2CC[C@H](C3)N2C(=O)c2cc3cc([C@H]4CCOC(C)(C)C4)ccc3n2C(=O)c2noc(=O)[nH]2)cc(C)c1F [Compound 122, 3-[5-[(4S)-2,2-dimethyltetrahydropyran-4-yl]-2-[(1S,8R)-4-(4-fluoro-3,5-dimethyl-phenyl)-3-[3-(4-fluoro-1-methyl-indazol-5-yl)-2-oxo-imidazol-1-yl]-4,5,11-triazatricyclo[6.2.1.02,6]undeca-2,5-diene-11-carbonyl]indole-1-carbonyl]-4H-1,2,4-oxadiazol-5-one]	–
361	Cc1cc(-n2nc3c(c2N2C(=O)CN(c4ccc5c(cnn5C)c4F)C2=O)[C@H](C)N(C(=O)c2cc4cc([C@H]5CCOC(C)(C)C5)ccc4n2[C@@]2(c4noc(=O)[nH]4)C[C@@H]2C)CC3)cc(C)c1F [Compound 23, 3-((S)-5-(5-((S)-2,2-dimethyltetrahydro-2H-pyran-4-yl)-1-((1S,2S)-2-methyl-1-(5-oxo-4,5-dihydro-1,2,4-oxadiazol-3-yl)cyclopropyl)-1H-indole-2-carbonyl)-2-(4-fluoro-3,5-dimethylphenyl)-4-methyl-4,5,6,7-tetrahydro-2H-pyrazolo[4,3-c]pyridin-3-yl)-1-(4-fluoro-1-methyl-1H-indazol-5-yl) imidazolidine-2,4-dione]	–
4130	Cc1cc(-n2nc3c(c2-n2ccn(-c4ccc5c(cnn5C)c4F)c2=O)[C@@H]2CC[C@H](C3)N2C(=O)c2cc3cc([C@@H]4CCOC5(CC5)C4)ccc3n2[C@@]2(c3noc(=O)[nH]3)C[C@@H]2C)cc(C)c1F [Compound 215, 3-((1S,2S)-1-(2-((4S,7R)-3-(3-(4-fluoro-1-methyl-1H-indazol-5-yl)-2-oxo-2,3-dihydro-1H-imidazol-1-yl)-2-(4-fluoro-3,5-dimethylphenyl)-2,4,5,6,7,8-hexahydro-4,7-epiminocyclohepta [c]pyrazole-9-carbonyl)-5-((R)-4-oxaspiro[2.5]octan-7-yl)-1H-indol-1-yl)-2-methylcyclopropyl)-1,2,4-oxadiazol-5 (4H)-one]	–
206	Cc1cc(-n2nc3c(c2-n2ccn(-c4ccc5c(cnn5C)c4C)c2=O)[C@@H]2CC[C@H](C3)N2C(=O)c2cc3cc([C@H]4CCOC(C)(C)C4)ccc3n2[C@@]2(c3noc(=O)[nH]3)C[C@@H]2C)cc(C)c1F [Compound 305, 3-((1S,2S)-1-(2-((45,7R)-3-(3-(1,4-dimethyl-1H-indazol-5-yl)-2-oxo-2,3-dihydro-1H-imidazol-1-yl)-2-(4-fluoro-3,5-dimethylphenyl)-2,4,5,6,7,8-hexahydro-4,7-epiminocyclohepta [c]pyrazole-9-carbonyl)-5-((S)-2,2-dimethyltetrahydro-2H-pyran-4-yl)-1H-indol-1-yl)-2-methylcyclopropyl)-1,2,4-oxadiazol-5 (4H)-one]	–
> 10000	Cc1cc(-n2nc3c(c2-n2ccn(-c4ccc5c(cnn5C)c4F)c2=O)[C@@H]2CC[C@H](C3)N2C(=O)c2cc3c(OC4CCOC(C)(C)C4)nccc3n2[C@@]2(c3noc(=O)[nH]3)C[C@@H]2C)cc(C)c1F (stereo partly drawn) [Compound 232, 3-[(1S,2S)-1-[4-(2,2-dimethyltetrahydropyran-4-yl)oxy-2-[(1S,8R)-4-(4-fluoro-3,5-dimethyl-phenyl)-3-[3-(4-fluoro-1-methyl-indazol-5-yl)-2-oxo-imidazol-1-yl]-4,5,11-triazatricyclo[6.2.1.02,6]undeca-2,5-diene-11-carbonyl]pyrrolo[3,2-c]pyridin-1-yl]-2-methyl-cyclopropyl]-4H-1,2,4-oxadiazol-5-one]	–
284	Cc1cc(-n2nc3c(c2-n2ccn(-c4ccc5c(cnn5C)c4F)c2=O)CN(Cc2cc4cc([C@H]5CCOC(C)(C)C5)ccc4n2[C@@]2(c4noc(=O)[nH]4)C[C@@H]2C)CCC3)cc(C)c1F [Compound 432, 3-((1S,2S)-1-(5-((S)-2,2-dimethyltetrahydro-2H-pyran-4-yl)-2-((3-(3-(4-fluoro-1-methyl-1H-indazol-5-yl)-2-oxo-2,3-dihydro-1H-imidazol-1-yl)-2-(4-fluoro-3,5-dimethylphenyl)-2,6,7,8-tetrahydropyrazolo[4,3-c]azepin-5 (4H)-yl)methyl)-1H-indol-1-yl)-2-methylcyclopropyl)-1,2,4-oxadiazol-5(4H)-one]	–
≥ 10000	Cc1cc(-n2nc3c(c2-n2ccn(-c4ccc5c(cnn5C)c4F)c2=O)[C@H]2CC[C@@H](C3)N2C(=O)c2cc3cc([C@H]4CCOC5(CC5)C4)ccc3n2[C@@]2(c3noc(=O)[nH]3)C[C@H]2C)cc(C)c1F [Compound 539, 3-((1S,2R)-1-(2-((4R,7S)-3-(3-(4-fluoro-1-methyl-1H-indazol-5-yl)-2-oxo-2,3-dihydro-1H-imidazol-1-yl)-2-(4-fluoro-3,5-dimethylphenyl)-2,4,5,6,7,8-hexahydro-4,7-epiminocyclohepta [c]pyrazole-9-carbonyl)-5-((S)-4-oxaspiro[2.5]octan-7-yl)-1H-indol-1-yl)-2-methylcyclopropyl)-1,2,4-oxadiazol-5 (4H)-one]	–

Compound	EC50 [1] [nM]	further results
Cc1cc(-n2nc3c(c2-n2ccn(-c4ccc5c(cnn5C)c4F)c2=O)[C@@H]2CC[C@H]([C@@H]3F)N2C(=O)c2cc3cc([C@H]4CCOC(C)(C)C4)ccc3n2[C@@]2(c3noc(=O)[nH]3)C[C@@H]2C)cc(C)c1F [Compound 515, 3-[(1S,2S)-1-[5-[(4S)-2,2-dimethyltetrahydropyran-4-yl]-2-[(1S,7S,8R)-7-fluoro-4-(4-fluoro-3,5-dimethyl-phenyl)-3-[3-(4-fluoro-1-methyl-indazol-5-yl)-2-oxo-imidazol-1-yl]-4,5,11-triazatricyclo[6.2.1.02,6]undeca-2,5-diene-11-carbonyl]indol-1-yl]-2-methyl-cyclopropyl]-4H-1,2,4-oxadiazol-5-one]	120	EC50 Ratio (Table 1d, potency ratio of stereoisomer pair (less potent / more potent isomer)): >44; EC50 (Table 1d, stereoisomer pairs, read-out: EC50): 120 nM; EC50 (text to Table 1d, bridge atoms configured into the plane or away from the reader, read-out: potency (EC50)): < 1000 nM
